pIC50: −log10 of the molar value. Counter-ions that a name gives are not always drawn.

This assay addresses T1, NLRP3 inflammasome (Homo sapiens, UniProt Q96P20).
T1 construct: endogenous in cells; host or cells: THP-1 cells (PMA-differentiated, stimulated with LPS and ATP)
Nature of the assay: THP-1 IL-1β production inhibition test. It counts as cell-based. The note with it: PMA-treated THP-1 cells, LPS 50 ng/mL + ATP 5 mM, 2 hours, IL-1β in supernatant by ELISA. The method, then:
PMA (phorbol myristate acetate, SIGMA, P1585) was added to THP-1 cells in an amount of 50 ng/mL to culture the cells for 2 days at 37° C. […] LPS (Lipopolysaccharide, SIMGA, L2880) and ATP (Adenosine triphosphate, SIGMA, A2383) were added so that final concentrations become 50 ng/mL and 5 mM, respectively, followed by culturing at 37° C. for 2 hours. The supernatants were collected to measure the concentrations of IL-1β by ELISA (DuoSet ELISA human IL-1β, R&D Systems, DY201). The IL-1β concentrations were plotted against log concentrations of test compounds, and an IC50 value was calculated by sigmoid Emax model nonlinear regression analysis.
On the technique in general: ELISA stands for enzyme-linked immunosorbent assay.

T1 sequence (Q96P20 whole entry): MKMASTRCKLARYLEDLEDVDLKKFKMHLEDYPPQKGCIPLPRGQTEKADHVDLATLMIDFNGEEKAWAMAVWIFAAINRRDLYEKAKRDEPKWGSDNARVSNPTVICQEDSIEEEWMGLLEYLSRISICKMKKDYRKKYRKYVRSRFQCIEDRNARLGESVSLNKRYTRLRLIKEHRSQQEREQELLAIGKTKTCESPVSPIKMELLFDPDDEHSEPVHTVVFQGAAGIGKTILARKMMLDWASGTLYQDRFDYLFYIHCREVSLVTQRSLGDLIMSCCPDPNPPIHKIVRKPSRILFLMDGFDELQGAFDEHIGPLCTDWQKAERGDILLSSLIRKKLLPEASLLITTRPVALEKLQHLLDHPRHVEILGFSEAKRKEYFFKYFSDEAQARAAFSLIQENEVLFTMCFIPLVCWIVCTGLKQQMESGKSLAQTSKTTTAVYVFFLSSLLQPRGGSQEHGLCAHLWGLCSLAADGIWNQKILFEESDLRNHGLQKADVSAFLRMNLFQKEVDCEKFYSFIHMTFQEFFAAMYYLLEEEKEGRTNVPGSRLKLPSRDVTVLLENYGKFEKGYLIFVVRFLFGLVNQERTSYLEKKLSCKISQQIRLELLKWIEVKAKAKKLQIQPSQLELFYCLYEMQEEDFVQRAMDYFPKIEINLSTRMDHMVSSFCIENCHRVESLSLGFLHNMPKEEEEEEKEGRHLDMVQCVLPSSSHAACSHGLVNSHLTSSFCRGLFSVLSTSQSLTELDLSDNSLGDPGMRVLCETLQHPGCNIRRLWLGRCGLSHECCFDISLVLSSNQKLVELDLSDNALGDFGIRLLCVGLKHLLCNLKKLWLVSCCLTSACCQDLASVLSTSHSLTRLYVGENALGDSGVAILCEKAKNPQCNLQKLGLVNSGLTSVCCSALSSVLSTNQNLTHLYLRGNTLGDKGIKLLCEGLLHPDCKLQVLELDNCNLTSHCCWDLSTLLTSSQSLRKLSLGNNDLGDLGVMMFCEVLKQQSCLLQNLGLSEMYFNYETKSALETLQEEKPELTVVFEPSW

For the compound `Oc1cc(OC(F)(F)F)ccc1-c1nnc(N[C@@H]2CCCC[C@H]2O)c2c1CCCC2` [Example 27], the pIC50 – broadly, −log10 of the IC50, conventionally taken in molar units – was 8.39.

For the compound `CN1CCC[C@@H](Nc2nnc(-c3ccc(OC(F)F)cc3O)c3c2CCOC3)C1` [Example 120], the pIC50 is 9.00.

Regarding `Oc1cc(C(F)(F)F)ccc1-c1nnc(N[C@@H]2CCCC[C@H]2O)c2c1CSCC2` [Example 102], the pIC50 was 8.29.

On to `Oc1cc(C(F)(F)F)ccc1-c1nnc(N[C@@H]2CCCC[C@H]2O)c2c1CCC2` [Example 19], for which the pIC50 is 7.09.

For `N[C@@H]1CCCC[C@H]1Nc1nnc(-c2ccc(C(F)(F)F)cc2O)c2ccccc12` [Example 82, 2-(4-{[(1R,2R)-2-aminocyclohexyl]amino}phthalazin-1-yl)-5-(trifluoromethyl)phenol dihydrochloride], the pIC50 was 7.55.

Consider `COc1ccc(-c2nnc(N[C@@H]3CCCC[C@H]3O)c3c2CCCC3)c(O)c1` [Example 28], for which the pIC50 is 7.85.

For `CC(=O)N1CCC[C@@H](Nc2nnc(-c3ccc(C(F)(F)F)cc3O)c3ccccc23)C1` [Example 63], the pIC50 was 8.03.

As to `Cc1cc(O)c(-c2nnc(N[C@@H]3CCCC[C@H]3O)c3c2CCOC3)c(F)c1` [62(1)], the pIC50 was 8.21.

For `CCN1CCc2c(-c3ccc(C(F)(F)F)cc3O)nnc(N[C@@H]3CCCC[C@H]3O)c2C1` [Example 78], the pIC50 is 7.27.

With `C[C@@H](O)CNc1nnc(-c2ccc(C(F)(F)F)cc2C(F)(F)F)c2c1CN(C)CC2` [Example 74], the pIC50 was 5.85.

For `Oc1cc(C(F)(F)F)ccc1-c1nnc(N[C@@H]2CCCNC2)c2c1CCCC2` [Example 96, 2-(4-{[(3R)-piperidin-3-yl]amino}-5,6,7,8-tetrahydrophthalazin-1-yl)-5-(trifluoromethyl)phenol], the pIC50 is 7.35.

For the compound `Cc1ccc(-c2nnc(NCCCO)c3c2CCCC3)cc1` [Example 6], the pIC50 was 5.05.

For the compound `Oc1cc(C(F)(F)F)ccc1-c1nnc(N[C@@H]2CCOC[C@H]2O)c2c1CCOC2` [101(1)], the pIC50 was 8.70.

As to `Oc1cc(C(F)F)ccc1-c1nnc(N[C@@H]2CCCC[C@H]2O)c2c1COC2` [Example 115], the pIC50 was 7.96.

As for `Oc1cc(C(F)(F)F)ccc1-c1nnc(N[C@@H]2CCCC[C@H]2O)c2c1OCCC2` [Example 42], the pIC50 was 7.43.

As for `CN1CCC[C@@H](Oc2nnc(-c3ccc(C(F)(F)F)cc3O)c3ccccc23)C1` [Example 67], the pIC50 was 7.89.

As for `OCC12CC(Nc3nnc(-c4ccc(C(F)(F)F)cc4O)c4c3CCCC4)(C1)C2` [Example 40], the pIC50 was 7.30.

`C[C@]1(O)C[C@@H](Nc2nnc(-c3ccc(Cl)cc3O)c3c2CCCC3)C1` [Example 30]: the pIC50 was 7.66.

For the compound `Oc1cc(C(F)(F)F)ccc1-c1nnc(N[C@@H]2CCCC[C@H]2O)c2c1CCC1(COC1)C2` [Example 107], the pIC50 is 8.44.

With `CS(=O)(=O)N1CCc2c(-c3ccc(C(F)(F)F)cc3O)nnc(N[C@@H]3CCCC[C@H]3O)c2C1` [Example 93, 2-[4-{[(1R,2R)-2-hydroxycyclohexyl]amino}-6-(methanesulfonyl)-5,6,7,8-tetrahydropyrido[3,4-d]pyridazin-1-yl]-5-(trifluoromethyl)phenol], the pIC50 was 6.70.

Regarding `Oc1cc(C(F)(F)F)ccc1-c1nnc(N[C@@H]2CCCC[C@H]2O)c2c1CNCC2` [Example 91], the pIC50 was 6.25.

With `Oc1cc(OC(F)(F)F)ccc1-c1nnc(N[C@@H]2CCCC[C@H]2O)c2c1CCCCC2` [Example 43], the pIC50 is 8.06.

For the compound `CN1CCC[C@@H](Nc2nnc(-c3ccc(C(F)(F)F)cc3O)c3c2CCOCC3)C1` [Example 105], the pIC50 was 8.05.

On to `Oc1ccccc1-c1nnc(N[C@@H]2CCCC[C@H]2O)c2c1CCOC2` [Example 61], for which the pIC50 was 7.02.

`CN1CCC[C@@H](Nc2nnc(-c3ccc(C(F)F)cc3O)c3c2COCC3)C1` [Example 113]: the pIC50 was 8.92.

Turning to `Oc1cc(C(F)F)ccc1-c1nnc(N[C@@H]2CCC[C@H](O)C2)c2c1COC2` [Example 114, 5-(difluoromethyl)-2-(4-{[(1R,3S)-3-hydroxycyclohexyl]amino}-5,7-dihydrofuro[3,4-d]pyridazin-1-yl)phenol], the pIC50 was 7.82.

For the compound `Cc1ccc(-c2nnc(N[C@@H]3CCOC[C@H]3O)c3c2CCCCC3)c(O)c1` [Example 46], the pIC50 was 7.96.

For the compound `CC(=O)N1CCC[C@@H](Nc2nnc(-c3ccc(C(F)(F)F)cc3O)c3c2CSC3)C1` [Example 119], the pIC50 was 8.22.

As to `C[C@@H](O)CNc1nnc(-c2ccc(C(F)(F)F)cc2O)c2ccncc12` [16(1)], the pIC50 was 8.72.

Take `CC(=O)N1CCc2c(-c3ccc(C(F)(F)F)cc3C(F)(F)F)nnc(NC[C@@H](C)O)c2C1` [Example 79, 1-{1-[2,4-bis(trifluoromethyl)phenyl]-4-{[(2R)-2-hydroxypropyl]amino}-7,8-dihydropyrido[3,4-d]pyridazin-6(5H)-yl}ethan-1-one]: the pIC50 is 5.32.

For the compound `CC(=O)NCCCCNc1nnc(-c2ccc(C(F)(F)F)cc2O)c2c1COCC2` [Example 118], the pIC50 was 8.32.

Turning to `Oc1cc(OC(F)(F)F)ccc1-c1nnc(N[C@@H]2CCCC[C@@H]2O)c2c1CCOC2` [Example 127, 2-(4-{[(1R,2S)-2-hydroxycyclohexyl]amino}-7,8-dihydro-5H-pyrano[3,4-d]pyridazin-1-yl)-5-(trifluoromethoxy)phenol], the pIC50 is 8.25.

`Oc1cc(C(F)F)ccc1-c1nnc(N[C@@H]2CCCC[C@H]2O)c2c1CCOC2` [Example 87]: the pIC50 was 8.19.

On to `Oc1cc(OC(F)(F)F)ccc1-c1nnc(N[C@@H]2CCOC[C@H]2O)c2c1CCCC2` [Example 37], for which the pIC50 is 7.74.

With `Cc1ccc(-c2nnc(N[C@H]3C[C@@](C)(O)C3)c3c2CCCC3)c(O)c1` [Example 31], the pIC50 was 7.36.

As for `COc1ccc(-c2nnc(N[C@@H]3CCCC[C@H]3O)c3c2CCCCC3)c(O)c1` [Example 47], the pIC50 is 7.80.

In the case of `Oc1cc(C(F)(F)F)ccc1-c1nnc(N[C@@H]2CCCN(C3CC3)C2)c2c1CSC2` [Example 126, 2-(4-{[(3R)-1-cyclopropylpiperidin-3-yl]amino}-5,7-dihydrothieno[3,4-d]pyridazin-1-yl)-5-(trifluoromethyl)phenol], the pIC50 is 8.15.

Turning to `CC(=O)NCCCCOc1nnc(-c2ccc(C(F)(F)F)cc2O)c2ccccc12` [Example 81, N-[4-({4-[2-hydroxy-4-(trifluoromethyl)phenyl]phthalazin-1-yl}oxy)butyl]acetamide], the pIC50 is 7.48.

In the case of `Oc1cc(C(F)(F)F)ccc1-c1nnc(N[C@@H]2CCCC[C@H]2O)c2c1CCCOC2` [108(2)], the pIC50 was 8.52.

As to `Oc1cc(OC(F)(F)F)ccc1-c1nnc(N[C@@H]2CCC[C@H](O)C2)c2c1CCOC2` [Example 106], the pIC50 was 8.32.

For the compound `Oc1cc(C(F)(F)F)ccc1-c1nnc(N[C@H]2CCCC[C@@H]2O)c2c1CCOC2` [66(2)], the pIC50 is 6.74.

Regarding `CN1CCC[C@@H](Nc2nnc(-c3ccc(C(F)(F)F)cc3O)c3c2CSC3(C)C)C1` [Example 123], the pIC50 is 7.33.

For `Oc1cc(C(F)(F)F)ccc1-c1nnc(N[C@@H]2CCCC[C@H]2O)c2c1COCCC2` [108(1)], the pIC50 was 7.57.

With `CC(=O)N1Cc2c(N[C@@H]3CCCC[C@H]3O)nnc(-c3ccc(C(F)(F)F)cc3O)c2C1` [Example 117, 1-(1-{[(1R,2R)-2-hydroxycyclohexyl]amino}-4-[2-hydroxy-4-(trifluoromethyl)phenyl]-5,7-dihydro-6H-pyrrolo[3,4-d]pyridazin-6-yl)ethan-1-one], the pIC50 is 6.89.

As to `Oc1cc(OC(F)(F)F)ccc1-c1nnc(N[C@@H]2CCCC[C@H]2O)c2c1CCOCC2` [Example 68], the pIC50 was 7.96.

`Oc1cc(C2CC2)ccc1-c1nnc(N[C@@H]2CCCC[C@H]2O)c2c1COCC2` [52(2)]: the pIC50 was 7.57.

As for `CN1CCC[C@@H](Nc2nnc(-c3ccc(C4CC4)cc3O)c3c2COCC3)C1` [Example 112, 5-cyclopropyl-2-(4-{[(3R)-1-methylpiperidin-3-yl]amino}-7,8-dihydro-5H-pyrano[3,4-d]pyridazin-1-yl)phenol], the pIC50 was 8.89.

For `CN1CCC[C@@H](Nc2nnc(-c3ccc(OC(F)(F)F)cc3O)c3c2COCC3)C1` [Example 128, 2-(4-{[(3R)-1-methylpiperidin-3-yl]amino}-7,8-dihydro-5H-pyrano[3,4-d]pyridazin-1-yl)-5-(trifluoromethoxy)phenol], the pIC50 was 8.48.

As for `C[C@]1(O)C[C@@H](Nc2nnc(-c3ccc(C(F)(F)F)cc3O)c3c2CCOC3)C1` [56(2)], the negative-log IC50 (pIC50) is 7.44.

On to `CN1CCC[C@@H](Nc2nnc(-c3ccc(C(F)(F)F)cc3O)c3c2CSC3)C1` [Example 121], for which the pIC50 was 8.07.

In the case of `Oc1cc(C(F)(F)F)ccc1-c1nnc(N[C@@H]2CCCN(C3CCC3)C2)c2c1CCCC2` [Example 71], the pIC50 is 6.82.

Take `CN1CCC[C@@H](Nc2nnc(-c3ccc(OC(F)F)cc3O)c3c2COCC3)C1` [Example 136, 5-(difluoromethoxy)-2-(4-{[(3R)-1-methylpiperidin-3-yl]amino}-7,8-dihydro-5H-pyrano[3,4-d]pyridazin-1-yl)phenol dihydrochloride]: the pIC50 is 8.66.

As to `O=S1(=O)CCc2c(-c3ccc(C(F)(F)F)cc3O)nnc(N[C@@H]3CCCC[C@H]3O)c2C1` [Example 129, 4-{[(1R,2R)-2-hydroxycyclohexyl]amino}-1-[2-hydroxy-4-(trifluoromethyl)phenyl]-7,8-dihydro-6λ^6-thiopyrano[3,4-d]pyridazin-6,6(5H)-dione], the pIC50 is 7.07.

Source of the values: patent US20250084092A1, “ANNULATED PYRIDAZINE COMPOUND” (Nico Therapeutics, Inc., priority 2021, published 2025).
